This is an account of results in ChEMBL document CHEMBL3865812, “Selective killing of cancer cells with triterpenoic acid amides - The substantial role of an aromatic moiety alignment” (Eur J Med Chem, 2016).

The term EC50 denotes the concentration giving half of the maximal effect. Low values mean an effect from little substance, high ones a need for much substance.

In series [1] the test system is A2780. The series is described as follows: Induction of apoptosis in human A2780 cells assessed as increase in apoptotic cells at 6 uM measured after 2 days by Annexin V/FITC/propidium iodide staining-based FACS analysis. The series is classed as functional, cell-based. (In flow cytometry, cells or beads pass a laser one at a time.)
Series [2] can be described thus: Cytotoxicity against human HT-29 cells measured after 96 hrs by SRB assay. Type of series: functional, cell-based. Particulars: HT-29, 96 h. A general note: The SRB assay estimates cell density from bound dye.
Series [3] is described as follows: Cytotoxicity against human 518A2 cells measured after 96 hrs by SRB assay. The series is classed as functional, cell-based. Particulars: 518A2, 96 h.
A short description of series [4]: Cell cycle arrest in human A2780 cells assessed as loss of G2 peak at 6 uM measured after 24 hrs by propidium iodide staining based FACS analysis. Type of series: functional.
For series [5], the system named is A2780. The series is described as follows: Induction of apoptosis in human A2780 cells assessed as secondary necrotic cells at 6 uM measured after 2 days by Annexin V/FITC/propidium iodide staining-based FACS analysis. Type of series: functional, cell-based.
Series [6] can be described thus: Cytotoxicity against human 8505C cells measured after 96 hrs by SRB assay. Type of series: functional, cell-based.
Series [7] is described as follows: Cytotoxicity against human A2780 cells measured after 96 hrs by SRB assay. Type of series: functional, cell-based. The note with it: A2780, 96 h.
Series [8] can be described thus: Cell cycle arrest in human A2780 cells assessed as sub-G1 peak appearance at 6 uM measured after 48 hrs by propidium iodide staining based FACS analysis. Type of series: functional.
A short description of series [9]: Cell cycle arrest in human A2780 cells assessed as accumulation at S-phase at 6 uM measured after 24 hrs by propidium iodide staining based FACS analysis. The series is classed as functional.
Series [10] in a line: Cytotoxicity against human A549 cells measured after 96 hrs by SRB assay. The series is classed as functional, cell-based. The note with it: A549, 96 h.
The test system of series [11] is A2780. The series is described as follows: Induction of apoptosis in human A2780 cells assessed as induction of membrane blebbing at 6 uM measured after 40 hrs by acridine orange/propidium iodide staining-based fluorescence microscopic analysis. The series is classed as functional, cell-based.
Series [12] in a line: Cytotoxicity against human MCF7 cells measured after 96 hrs by SRB assay. The note with it: MCF7, 96 h. The series is classed as functional, cell-based.
Series [13] can be described thus: Cell cycle arrest in human A2780 cells assessed as decrease in G1 peak at 6 uM measured after 24 hrs by propidium iodide staining based FACS analysis. Type of series: functional.
Series [14] in a line: Cell cycle arrest in human A2780 cells assessed as decrease in accumulation of cells at S-phase at 6 uM measured after 48 hrs by propidium iodide staining based FACS analysis. The series is classed as functional.
A short description of series [15]: Cytotoxicity against mouse NIH/3T3 cells measured after 96 hrs by SRB assay. The series is classed as toxicity, NIH3T3.
Series [16] concerns A2780. Description: Induction of apoptosis in human A2780 cells assessed as secondary necrotic cells at 6 uM measured after 40 hrs by acridine orange/propidium iodide staining-based fluorescence microscopic analysis. Type of series: functional, cell-based.
Series [17] deals with A2780. Description: Induction of apoptosis in human A2780 cells assessed as increase in secondary necrotic cells at 1.5 uM measured after 48 hrs by Annexin V/FITC/propidium iodide staining-based FACS analysis relative to control. The series is classed as functional.
The nature of series [18]: Cell cycle arrest in human A2780 cells assessed as accumulation at S-phase at 1.5 uM measured after 24 hrs by propidium iodide staining based FACS analysis. The series is classed as functional.
The subject of series [19] is A2780. The series is described as follows: Induction of apoptosis in human A2780 cells assessed as apoptotic cells at 1.5 uM measured after 48 hrs by Annexin V/FITC/propidium iodide staining-based FACS analysis relative to control. Type of series: functional.
The nature of series [20]: Cell cycle arrest in human A2780 cells assessed as sub-G1 peak appearance at 1.5 uM measured after 48 hrs by propidium iodide staining based FACS analysis. Type of series: functional.
A short description of series [21]: Cell cycle arrest in human A2780 cells assessed as decrease in accumulation of cells at S-phase at 1.5 uM measured after 48 hrs by propidium iodide staining based FACS analysis. The series is classed as functional.
The nature of series [22]: Cell cycle arrest in human A2780 cells assessed as loss of G2 peak at 1.5 uM measured after 24 hrs by propidium iodide staining based FACS analysis. Type of series: functional.
Series [23] in a line: Cell cycle arrest in human A2780 cells assessed as decrease in G1 peak at 1.5 uM measured after 24 hrs by propidium iodide staining based FACS analysis. The series is classed as functional.
Series [24] has as its system A2780. Description: Selectivity index, ratio of EC50 for mouse NIH/3T3 cells to EC50 for human A2780 cells. Type of series: functional.
Series [25] concerns A2780. The series is described as follows: Induction of apoptosis in human A2780 cells assessed as increase in apoptotic cells at 1.5 uM measured after 24 hrs by Annexin V/FITC/propidium iodide staining-based FACS analysis relative to control. Type of series: functional.
The nature of series [26]: Solubility of compound in water. The series is classed as physicochemical. Particulars: buffer.

Activity calls are given as the source filed them. The rule behind the calls is not given here.

Consider `CC(=O)O[C@H]1C[C@]2(C)[C@H]3CC=C4[C@@H]5CC(C)(C)CC[C@]5(C(=O)Nc5cncc6ccccc56)CC[C@@]4(C)[C@]3(C)CC[C@H]2C(C)(C)[C@H]1OC(C)=O`, for which the result (with A2780 [1]; in [4]; in the series with A2780 [5]; in series [8]; in series [9]; in the series with A2780 [11]) was Active. The outcome (in [13]; in series [14]; in the series on A2780 [16]) was Active. Further, the EC50 in series [2] is 2.3 µM; in series [3], 1.6 µM; in series [6], 2.6 µM; in series [7] it was 1.2 µM; in series [10], 3.3 µM; in series [12] it was 2.4 µM. In series [15], this compound yielded an EC50 at 96 h greater than 60 µM.

`CC(=O)OC[C@@]1(C)[C@@H]2CC[C@]3(C)[C@H](CC=C4[C@@H]5[C@@H](C)[C@H](C)CC[C@]5(C(=O)Nc5cccc6ncccc56)CC[C@]43C)[C@@]2(C)C[C@@H](OC(C)=O)[C@@H]1OC(C)=O`: the result (with A2780 [1]; with A2780 [17]; with A2780 [5]; in series [18]; with A2780 [19]; in series [20]) was Active. In addition, the outcome in series [21], in series [22] and in series [23] was Active. For the same compound, the EC50 was found to be 0.8 µM in series [2]; 0.5 µM in series [3]; 0.9 µM in series [6]; 0.4 µM in [7]; 1.1 µM in [10]; 1.4 µM in [12]. The same compound gave an EC50 at 96 h in series [15] of 10.2 µM.

As for `CC(=O)OC[C@@]1(C)[C@@H]2CC[C@]3(C)[C@H](CC=C4[C@@H]5[C@@H](C)[C@H](C)CC[C@]5(C(=O)Nc5cncc6ccccc56)CC[C@]43C)[C@@]2(C)C[C@@H](OC(C)=O)[C@@H]1OC(C)=O`, the result (with A2780 [1]; with A2780 [5]; in series [18]; in series [20]; in series [21]; in [22]) was Active. In series [23], the outcome was Active. Also, the EC50 in [2] worked out at 0.22 µM; in series [3], 0.19 µM; in series [7], 0.08 µM; in [10], 0.29 µM; in series [12] it was 0.54 µM. The figures for the Activity in the series on A2780 [17], in the series with A2780 [19] and with A2780 [25] were 45%, 10% and 20%, respectively. For the same compound, the “Ratio EC50” value in the series on A2780 [24] turned out to be 40. For the same compound, the EC50 at 96 h in [15] is 3.23 µM.

Consider `CC(=O)O[C@H]1C[C@]2(C)[C@H]3CC=C4[C@@H]5CC(C)(C)CC[C@]5(C(=O)Nc5cnc6ccccc6c5)CC[C@@]4(C)[C@]3(C)CC[C@H]2C(C)(C)[C@H]1OC(C)=O`, for which the outcome (with A2780 [1]; in series [4]; in the series on A2780 [5]; in series [8]; in [9]; in series [13]) was Active. Further, in series [14], the outcome was Active. Further, the EC50 in [2] is 6.3 µM; in series [3] it was 2.9 µM; in series [6], 5 µM; in series [7], 2.2 µM; in series [10], 7.4 µM; in series [12] it was 9.3 µM. Further, the solubility result in series [26] is “Insoluble”. The EC50 at 96 h in series [15] amounted to 0.9 µM.

In the case of `CC(=O)O[C@H]1C[C@]2(C)[C@H]3CC=C4[C@@H]5CC(C)(C)CC[C@]5(C(=O)Nc5ccnc6ccccc56)CC[C@@]4(C)[C@]3(C)CC[C@H]2C(C)(C)[C@H]1OC(C)=O`, the outcome (in the series with A2780 [1]; in series [4]; in the series with A2780 [5]; in [8]; in series [9]; in series [13]) was Active. The result in series [14] was Active. The EC50 in series [2] came to 4.1 µM; in [3], 2.4 µM; in [6] it was 3.4 µM; in series [7], 2 µM; in series [10], 4.2 µM; in [12], 4.3 µM. Besides, in [26], the solubility entry is “Insoluble”. This compound also yielded an EC50 at 96 h in series [15] of 2.9 µM.

For the compound `CC(=O)O[C@H]1C[C@]2(C)[C@H]3CC=C4[C@@H]5CC(C)(C)CC[C@]5(C(=O)Nc5ccc6ncccc6c5)CC[C@@]4(C)[C@]3(C)CC[C@H]2C(C)(C)[C@H]1OC(C)=O`, the outcome (in the series with A2780 [1]; in series [4]; in the series with A2780 [5]; in series [8]; in [9]; in series [13]) was Active. Besides, the outcome in series [14] was Active. The EC50 in series [2] was 4.4 µM; in [3], 2.9 µM; in series [6], 3.8 µM; in series [7], 2 µM; in series [10] it was 4.9 µM; in series [12] it was 5.8 µM. Besides, the solubility result in series [26] is “Insoluble”. Besides, in series [15], the EC50 at 96 h amounted to 0.6 µM.
